# Test system: Human alphaherpesvirus 2
# Assay: Antiherpetic activity against HSV2 in african green monkey Vero cells assessed as inhibition of virus-induced cytopathic effect
# Format: functional
# Settings: Human alphaherpesvirus 2, Vero
row,Compound,GI50 [mg/L]
1,CC(C)=CCc1c(O)c2c(c3c1OC(=O)C[C@H]3c1ccccc1)O[C@@H](C)[C@@H](C)C2=O [CALOPOLYANOLIDE D],> 250
2,CC(C)=CCc1c(O)c2c(c3c1OC(=O)C[C@H]3c1ccccc1)O[C@@H](C)[C@H](C)C2=O [CALOPOLYANOLIDES C],> 250
